From patent publication US6169116A, “Amino-tetralines, pharmaceutical compositions containing them and their pharmaceutical uses” (Novartis AG, priority 1995, dated 2001) come the findings set out here.

Experiment [1] has as its system ischemia-induced neuronal damage (infarct size). The experiment can be described thus: middle cerebral artery (MCA) occlusion model in rats. The experiment is classed as in vivo. On the procedure: Furthermore, the agents of the invention reduce ischemia-induced neuronal damage and ensuing symptoms in the middle cerebral artery (MCA) occlusion model in rats at a dosage of 1-30 mg/kg i.p, i.v. and p.o. [cf. A. Tamura et al., J. Cereb. Blood Flow Metabol. 1, 53-60 (1981)), A. Sauter, M. Rudin, Stroke 17, 1228-1234 (1986)].
(§1) For all these indications the preferred compound is (R)-1,2,3,4-tetrahydro-8-methoxy-N,N-dimethyl-5-[4-(trifluoromethyl)phenyl]-2-naphthaleneamine, which is the compound of example 21. It has for example been determined that in the above mentioned electroshock model, this compound provides protection against maximal electroshock-induced convulsions with a threshold dose of 10 mg/kg p.o. for periods up to 8 hours post-administration.

Experiment [2] relates to veratridine-induced glutamate release in rat hippocampal slice preparations. The experiment can be described thus: veratridine-induced glutamate release in rat hippocampal slice preparations. As to conditions: for IC50: Rattus norvegicus, read-out: IC50, block of veratridine-induced glutamate release. The experiment is classed as cell-based. On the procedure:
(§2) The agents of the invention display binding to the veratridine-sensitive sodium channel with IC50 S of from about 0.1 to about 100 μM. For the binding procedure see for example J. B. Brown, Journal of Neuroscience 6, 2064-2070 (1986). They block veratridine-induced glutamate release in rat hippocampal slice preparations at concentrations of about 0.1-1 μM.
The experiment is performed according to a modification of M. J. Leach et al. in Epilepsia 27, 490-497 (1986) and Stroke 24, 1063-1067 (1993), using exogenous glutamate.

Experiment [3] deals with maximal electroshock-induced convulsions. Nature of the experiment: protection against maximal electroshock-induced convulsions in mice. The experiment is classed as in vivo. How it is done:
The agents of the invention provide long-lasting protection against maximal electroshock-induced convulsions in mice at doses of about 1 to 100 mg/kg p.o. and about 0.32 to 32 mg/kg i.p. [cf. E. A. Swinyard, J. Am. Pharm. Assoc. Scient. Ed. 38, 201 (1949) and J. Pharmacol. Exptl. Therap. 106, 319 (1952)].
as §1
A general note: Protection in the maximal electroshock model is a classic sign of anticonvulsant action.

The target of experiment [4] is veratridine-sensitive sodium channel. Nature of the experiment: binding to the veratridine-sensitive sodium channel. As to conditions: read-out: IC50, affinity for the veratridine binding site. How it is done: as §2
Setting [5] is: 10 mg/kg i.p., immediately after occlusion.

What is called IC50 is the midpoint of a concentration-inhibition curve. As to `COc1ccc(-c2ccc(C(F)(F)F)cc2)c2c1C[C@H](N(C)C)CC2` [Example 21, (R)-1,2,3,4-tetrahydro-8-methoxy-N,N-dimethyl-5-[4-(trifluoromethyl)phenyl]-2-naphthaleneamine], the infarct size reduction in experiment [1] (3.2 mg/kg i.p. immediately after occlusion) was found to be 19%; in experiment [1] (setting [5]), 43%; in experiment [1] (32 mg/kg i.p. immediately after occlusion), 53%. For the same compound, the IC50 in experiment [2] stood at 500 nM; in experiment [4], 125 nM. Besides, in experiment [2] (compared with Lifarizine), the “potency relative to Lifarizine in the veratridine-induced glutamate release test” value is “about equipotent to Lifarizine”. The minimal effective dose in experiment [3] (Mus musculus, po, read-out: threshold dose for protection against maximal electroshock-induced convulsions) was 10 mg/kg. Also, in experiment [3] (p.o., threshold dose 10 mg/kg), the “period of protection against maximal electroshock-induced convulsions post-administration” value is given as “up to 8 hours”.
In the case of `Nc1nnc(-c2cccc(Cl)c2Cl)c(N)n1` [Lamotrigine, reference compound], in experiment [2], the IC50 is 20000 nM.
`Cc1ccc(-c2nc(C)c(CN3CCN(C(c4ccccc4)c4ccccc4)CC3)[nH]2)cc1` [Lifarizine, reference compound] displayed an infarct size reduction in experiment [1] (setting [5]) of 25%.
Consider `Nc1nc2ccc(OC(F)(F)F)cc2s1` [Riluzole, reference compound], for which the IC50 in experiment [2] was determined as 5000 nM.
